Results from patent publication EP1247803A2, “Indolinone compounds suitable for modulation of protein kinases” (Sugen, Inc., priority 1996, dated 1998).

Columns and labels:
MET = MET biochemical kinase assay; set-up: species or system human; concentration or dose not given beside the values
Text: A met biochemical kinase assay may be performed for met generally as described above for other kinases by substituting that or the other kinases. In particular, ELISA plates are coated with goat anti-rabbit Fc antibodies, which are used to capture commercially available (from Santa Cruz Biotechnology) rabbit polyclonal antibodies to the cytoplasmic domain of human MET. […] The chimeric receptors, or MET, from these lysates are captured on the antibody coated plates. After washing away extraneous proteins, test compounds are added and an in vitro kinase assay is performed by addition of an appropriate kinase buffer (containing ATP, divalent metal ions, etc.). Incorporation of phosphate into the captured receptors is detected with an anti-phosphotyrosine antibody conjugate with horse radish peroxidase using TMB as a substrate for colorimetric detection.

FLK-1 receptor = target: T1, FLK-1 receptor (Mus musculus, UniProt P35918); test: FLK-1 ELISA (kinase activity of the FLK-1 receptor in FLK-1/NIH3T3 cells, VEGF stimulated); assay type: cell-based
T1 construct: expressed in transfected cells; host or cells: NIH3T3 C7#3
Experimental: An enzyme linked immunosorbent assay (ELISA) was conducted to measure the catalytic activity of the FLK-1 receptor and more specifically, the inhibition or activation of indolinone compounds on the catalytic activity of the FLK-1 receptor. Specifically, the following assay was conducted to measure catalytic activity of the FLK-1 receptor in FLK-1/NIH3T3 cells.
The materials and protocol for the FLK-1 ELISA assay are as described in International Patent Publication No. WO 96/40116, published December 19, 1996 by Tang et al.
Selected compounds were tested in the FLK-1 ELISA assay.
An ELISA assay was conducted to measure the kinase activity of the FLK-1 receptor and more specifically, the inhibition or activation of protein tyrosine kinase activity on the FLK-1 receptor. Specifically, the following assay was conducted to measure kinase activity of the FLK-1 receptor in FLK-1/NIH3T3 cells.
Materials. The following reagents and supplies were used: • a. […] Cappel goat anti-rabbit IgG (catalog no. 55641); • c. PBS (Gibco Catalog No. 450-1300EB); • d. TBSW Buffer (50 mM Tris (pH 7.2), 150 mM NaCl and 0.1% Tween-20); • e. Ethanolamine stock (10% ethanolamine (pH 7.0), stored at 4°C); • f. HNTG buffer (20mM HEPES buffer (pH 7.5), 150mM NaCl, 0.2% Triton X-100, and 10% glycerol); • g. EDTA (0.5 M (pH 7.0) as a 100X stock); • h. Sodium ortho vanadate (0.5 M as a 100X stock); • i. Sodium pyro phosphate (0.2M as a 100X stock); • j. NUNC 96 well V bottom polypropylene plates (Applied Scientific Catalog No. AS-72092); • k. NIH3T3 C7#3 Cells (FLK-1 expressing cells); • l. DMEM with 1X high glucose L Glutamine (catalog No. 11965-050); • m. FBS, Gibco (catalog no. 16000-028); • n. L-glutamine, Gibco (catalog no. 25030-016); • o. VEGF, PeproTech, Inc. (catalog no. 100-20)(kept as 1 µg/100 µl stock in Milli-Q dH2O and stored at -20°C; • p. Affinity purified anti-FLK-1 antiserum which can be obtained or purified as follows: • 1. Prepare a Tresyl-Activated Agarose/Flk-1-D column by incubating 10 ml of Tresyl-Activated Agarose with 20 mg of purified GST-Flk-1-D fusion protein in 100mM sodium bicarbonate (pH 9.6) buffer overnight at 4 °C. • 2. Wash the column once with PBS. • 3. Block the excess sites on the column with 2 M glycine for 2 hours at 4°C. • 4. Wash the column with PBS. • 5. Incubate the column with Rabbit anti-Flk-1D production bleed for 2 hours at 4 °C. • 6. Wash the column with PBS. • 7. Elute antiserum with 100 mM Citric Acid, pH3.0 and neutralize the eluate immediately with 2 M Tris, pH 9.0. • 8. Dialyize the eluate against PBS overnight at 4 °C with 3 changes of buffer (sample to buffer ratio is 1:100). • 9. Adjust the dialyized antiserum to 5% glycerol and store at -80 °C in small aliquotes. • q.
Protocol. The following protocol was used for conducting the assay: • 1. Coat Corning 96-well elisa plates with 1.0µg per well Cappel Anti-rabbit IgG antibody in 0.1M Na2CO3 pH 9.6. Bring final volume to 150 µl per well. Coat plates overnight at 4°C. Plates can be kept up to two weeks when stored at 4°C. • 2. Grow cells in Growth media(DMEM, supplemental with 2.0mM L-Glutamine, 10% FBS) in suitable culture dishes until confluent at 37°C, 5% CO2. • 3. Harvest cells by trypsinization and seed in Corning 25850 polystyrene 96-well roundbottom cell plates, 25.000 cells/well in 200µl of growth media. • 4. Grow cells at least one day at 37°C, 5% CO2. • 5. Wash cells with D-PBS 1X. • 6. Add 200µl/well of starvation media (DMEM, 2.0mM 1-Glutamine, 0.1% FBS). Incubate overnight at 37°C, 5% CO2. • 7. Dilute Compounds/Extracts 1:20 in polypropylene 96 well plates using starvation media. Dilute dimethylsulfoxide 1:20 for use in control wells. • 8. Remove starvation media from 96 well cell culture plates and add 162 µl of fresh starvation media to each well. • 9. Add 18µl of 1:20 diluted Compound/Extract dilution (from step 7) to each well plus the 1:20 dimethylsulfoxide dilution to the control wells (+/- VEGF), for a final dilution of 1:200 after cell stimulation. […]

T1 sequence (P35918 20-1345): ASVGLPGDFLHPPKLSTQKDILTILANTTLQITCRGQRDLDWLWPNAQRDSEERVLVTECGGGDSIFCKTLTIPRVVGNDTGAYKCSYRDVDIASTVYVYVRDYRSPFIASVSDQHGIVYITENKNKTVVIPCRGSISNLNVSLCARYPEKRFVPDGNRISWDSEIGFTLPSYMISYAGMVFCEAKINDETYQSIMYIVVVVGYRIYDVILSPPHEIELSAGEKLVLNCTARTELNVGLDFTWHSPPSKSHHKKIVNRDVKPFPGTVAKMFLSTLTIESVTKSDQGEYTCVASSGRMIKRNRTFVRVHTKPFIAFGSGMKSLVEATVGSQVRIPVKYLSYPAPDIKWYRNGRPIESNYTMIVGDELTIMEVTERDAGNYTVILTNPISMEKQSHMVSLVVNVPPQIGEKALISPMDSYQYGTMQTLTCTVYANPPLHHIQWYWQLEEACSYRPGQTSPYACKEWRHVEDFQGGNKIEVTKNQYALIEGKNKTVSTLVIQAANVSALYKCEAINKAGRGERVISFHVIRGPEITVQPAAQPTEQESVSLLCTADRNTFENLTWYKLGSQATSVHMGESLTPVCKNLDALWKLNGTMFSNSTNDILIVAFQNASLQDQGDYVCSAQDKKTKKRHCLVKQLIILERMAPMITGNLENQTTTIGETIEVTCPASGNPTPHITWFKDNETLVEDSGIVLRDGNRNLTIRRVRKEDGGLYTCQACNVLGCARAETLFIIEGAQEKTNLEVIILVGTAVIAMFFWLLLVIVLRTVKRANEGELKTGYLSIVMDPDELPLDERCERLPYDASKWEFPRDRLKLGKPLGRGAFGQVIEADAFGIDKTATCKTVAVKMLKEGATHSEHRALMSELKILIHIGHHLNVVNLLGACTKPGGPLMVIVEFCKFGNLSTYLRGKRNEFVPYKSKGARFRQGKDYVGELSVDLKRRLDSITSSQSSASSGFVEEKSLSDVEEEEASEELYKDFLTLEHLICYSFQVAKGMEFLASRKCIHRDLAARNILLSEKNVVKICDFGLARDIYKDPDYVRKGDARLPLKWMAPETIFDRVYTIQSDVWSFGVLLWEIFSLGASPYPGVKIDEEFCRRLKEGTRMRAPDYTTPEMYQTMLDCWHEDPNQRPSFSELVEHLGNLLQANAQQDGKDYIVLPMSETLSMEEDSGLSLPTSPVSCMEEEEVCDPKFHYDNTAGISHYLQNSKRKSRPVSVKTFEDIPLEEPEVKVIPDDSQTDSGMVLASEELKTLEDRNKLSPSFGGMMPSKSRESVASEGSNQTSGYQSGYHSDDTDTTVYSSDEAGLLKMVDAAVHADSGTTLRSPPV

Compound	Met Kinase % Inhibition (MET) [%]	Fik Kinase %Inhibition (FLK-1 receptor) [%]
Cc1c(Br)ccc2c1C(=Cc1ccco1)C(=O)N2 [10718/C10]	4.4	-11.9
Cc1c(Br)ccc2c1C(=Cc1ccc([N+](=O)[O-])o1)C(=O)N2 [10718/C11]	10.1	11.4
CCOC(=O)c1c(C)[nH]c(C=C2C(=O)Nc3ccc(S(=O)(=O)NC)cc32)c1C [10718/D02]	32.0	13.3
CNS(=O)(=O)c1ccc2c(c1)C(=Cc1cc(OC)cc(Br)c1O)C(=O)N2 [10718/D03]	92.9	1.1
CNS(=O)(=O)c1ccc2c(c1)C(=Cc1ccc3ccccc3c1O)C(=O)N2 [10718/D04]	92.9	6.4
CCOC(=O)CCc1c(C(=O)OCC)[nH]c(C=C2C(=O)Nc3ccc(S(=O)(=O)NC)cc32)c1CC(=O)OCC [10718/D05]	10.6	11.5
CCOC(=O)c1cc(C=C2C(=O)Nc3ccc(S(=O)(=O)NC)cc32)oc1C [10718/D06]	11.1	15.8
C=C(C)C1CC=C(C=C2C(=O)Nc3ccc(S(=O)(=O)NC)cc32)CC1 (stereo not drawn) [10731/D04]	24.5	9.3
CNS(=O)(=O)c1ccc2c(c1)C(=Cc1coc3ccc(C(C)C)cc3c1=O)C(=O)N2 [10731/D05]	92.7	32.7
CNS(=O)(=O)c1ccc2c(c1)C(=Cc1coc3ccc(C)cc3c1=O)C(=O)N2 [10731/D06]	59.7	16.1
CNS(=O)(=O)c1ccc2c(c1)C(=Cc1coc3ccc([N+](=O)[O-])cc3c1=O)C(=O)N2 [10731/D07]	45.9	12.3
CNS(=O)(=O)c1ccc2c(c1)C(=Cc1c[nH]c(=O)[nH]c1=O)C(=O)N2 [10731/D08]	44.2	25.8
CNS(=O)(=O)c1ccc2c(c1)C(=Cc1c[nH]c3ccc(OC)cc13)C(=O)N2 [10731/D09]	23.9	6.1
CNS(=O)(=O)c1ccc2c(c1)C(=C1C(=O)N(C)c3ccccc31)C(=O)N2 [10731/D10]	21.1	13.0
CCn1c2ccccc2c2cc(C=C3C(=O)Nc4ccc(S(=O)(=O)Nc5ccc(C(F)(F)F)cc5)cc43)ccc21 [10731/E02]	49.1	11.2
Cc1cc2occ(C=C3C(=O)Nc4ccc(S(=O)(=O)Nc5ccc(C(F)(F)F)cc5)cc43)c(=O)c2cc1C [10731/E03]	20.7	-1.4
C=C(C)C1CC=C(C=C2C(=O)Nc3ccc(S(=O)(=O)Nc4ccc(C(F)(F)F)cc4)cc32)CC1 (stereo not drawn) [10731/E04]	55.6	23.8
CC(C)c1ccc2occ(C=C3C(=O)Nc4ccc(S(=O)(=O)Nc5ccc(C(F)(F)F)cc5)cc43)c(=O)c2c1 [10731/E05]	82.2	7.0

Compound	Met Kinase % Inhibition (MET) [%]	Fik Kinase %Inhibition (FLK-1 receptor) [%]
Cc1ccc2occ(C=C3C(=O)Nc4ccc(S(=O)(=O)Nc5ccc(C(F)(F)F)cc5)cc43)c(=O)c2c1 [10731/E06]	37.7	2.6
O=C1Nc2ccc(S(=O)(=O)Nc3ccc(C(F)(F)F)cc3)cc2C1=Cc1coc2ccc([N+](=O)[O-])cc2c1=O [10731/E07]	45.9	12.6
O=C1Nc2ccc(S(=O)(=O)Nc3ccc(C(F)(F)F)cc3)cc2C1=Cc1c[nH]c(=O)[nH]c1=O [10731/E08]	59.0	10.5
COc1ccc2[nH]cc(C=C3C(=O)Nc4ccc(S(=O)(=O)Nc5ccc(C(F)(F)F)cc5)cc43)c2c1 [10731/E09]	27.0	52.5
CN1C(=O)C(=C2C(=O)Nc3ccc(S(=O)(=O)Nc4ccc(C(F)(F)F)cc4)cc32)c2ccccc21 [10731/E10]	35.5	33.1
CCn1c2ccccc2c2cc(C=C3C(=O)Nc4ccc(S(=O)(=O)N5CCOCC5)cc43)ccc21 [10731/F02]	47.5	11.1
Cc1cc2occ(C=C3C(=O)Nc4ccc(S(=O)(=O)N5CCOCC5)cc43)c(=O)c2cc1C [10731/F03]	40.6	7.9
C=C(C)C1CC=C(C=C2C(=O)Nc3ccc(S(=O)(=O)N4CCOCC4)cc32)CC1 (stereo not drawn) [10731/F04]	17.0	24.5
CC(C)c1ccc2occ(C=C3C(=O)Nc4ccc(S(=O)(=O)N5CCOCC5)cc43)c(=O)c2c1 [10731/F05]	84.4	17.6
Cc1ccc2occ(C=C3C(=O)Nc4ccc(S(=O)(=O)N5CCOCC5)cc43)c(=O)c2c1 [10731/F06]	20.9	2.2
O=C1Nc2ccc(S(=O)(=O)N3CCOCC3)cc2C1=Cc1coc2ccc([N+](=O)[O-])cc2c1=O [10731/F07]	34.7	13.3
O=C1Nc2ccc(S(=O)(=O)N3CCOCC3)cc2C1=Cc1c[nH]c(=O)[nH]c1=O [10731/F08]	23.5	9.2
COc1ccc2[nH]cc(C=C3C(=O)Nc4ccc(S(=O)(=O)N5CCOCC5)cc43)c2c1 [10731/F09]	20.5	2.3
CN1C(=O)C(=C2C(=O)Nc3ccc(S(=O)(=O)N4CCOCC4)cc32)c2ccccc21 [10731/F10]	48.1	11.0
CCn1c2ccccc2c2cc(C=C3C(=O)Nc4ccc(CCCl)cc43)ccc21 [10731/G02]	15.2	16.8
Cc1cc2occ(C=C3C(=O)Nc4ccc(CCCl)cc43)c(=O)c2cc1C [10731/G03]	33.7	12.9
C=C(C)C1CC=C(C=C2C(=O)Nc3ccc(CCCl)cc32)CC1 (stereo not drawn) [10731/G04]	23.3	14.5
CC(C)c1ccc2occ(C=C3C(=O)Nc4ccc(CCCl)cc43)c(=O)c2c1 [10731/G05]	72.4	17.5
